In patent US9648880B2, “Antifungal agents and uses thereof” (University of Massachusetts, priority 2012, dated 2017):
“Also recorded” adds a separate entry of the source.

Key:
Format in all cases: cell-based, Candida albicans
[1] = tested on: C. albicans SC5314; experiment: alamarBlue-based polystyrene adhesion assay; settings: for C. albicans adhesion to polystyrene: 25 μM
Description: We prioritized the candidate compounds by testing the dose-dependence of their effects. Because of the laborious washing required to remove background crystal violet dye staining, we developed adhesion assays using alternative detection reagents. Previous experiments screens have used the vital dye alamarBlue to measure Candida viability (Lafleur, J. Antimicrob Chemother. 66: 820-826, 2011; Youngsaye supra), so we tested this reagent as a way to measure cells remaining adhered after washing. […] The majority of the reordered compounds were effective at reducing Candida adhesion at 50 μM, the concentration originally tested during the screen. […] Although compounds that were still effective at 25 μM were less generally less so at 7.5 μM (FIG. 1C), many candidates still reduced adhesion by >50% at this lower concentration.
Overnight cultures of SC5314 and edt1^−/− cells were grown and plated onto Immulon 2HB 96-well microtiter plates and treated with small molecules as described above. Following incubations, media was decanted and plates were washed twice with 100 μl/well PBS. alamarBlue (Life Technologies) was resuspended to a final concentration of 5% in RPMI buffered with 0.165 M MOPS and then 100 μl was added to each well, followed by further incubation for 2 hours at 37° C. Fluorescence signals at 555Ex/585Em were read using a SpectraMax M5 Plate reader (Molecular Devices).

[2] = tested on: C. albicans adherence to human lung epithelial A549 cells; experiment: epithelial cell binding assay; settings: 25 μM; 37° C., 90 min
Description: In addition to experiments with inert surfaces, we also tested how the candidate compounds would affect C. albicans adherence to human cells, measuring binding of Green Fluorescent Protein (GFP)-encoding C. albicans cells to monolayers of human lung epithelial A549 cells, which are an effective substrate for Candida adhesion (Kitamura, Antimicrob Agents Chemother. 53: 3963-3971, 2009). […] We conclude that compound #4 is not toxic to this human cell line under our assay concentrations, but can impair fungal adhesion both to inert surfaces and to cultured human epithelial cells.
Human lung epithelial A549 cells (Giard, 1973) were grown to confluence on Nunc 48 well plates in RPMI+10% FBS and Penicillin/Streptomycin. Media was decanted and plates were carefully washed 3 times with PBS to remove unbound cells. Pre-grown overnight cultures of SC5314-GFP and edt1^−/−-GFP C. albicans cells were resuspended in fresh SC+0.2% glucose at 0.5 OD/ml and 250 μl of yeast suspension were plated onto to each well. Following incubation at 37° C. for 1.5 hours, media was decanted, and the monolayers were washed carefully 3 times with 250 μl PBS. Fluorescence from bound yeast was measured (485 Ex/535 Em) using the Synergy HT plate reader (BioTek) after addition of 100 μl PBS/well.

[3] = tested on: C. albicans SC5314-GFP biofilm; experiment: biofilm formation on silicone elastomers; settings: for dry weight of biofilm / biofilm formation, visual inspection: 50 μM, 60 hrs; for biofilm formation, visual inspection: silicone mesh
Protocol: FIGS. 5A-5C. Effect of small molecules on biofilm formation in vitro. FIG. 5A is a series of photographs showing biofilm formation on silicone elastomers. Biofilm assay was performed with SC5314-GFP and edt1^Δ/Δ-GFP and photographed after 60 hrs. Indicated compounds were added at 50 μM. Turbid medium indicates planktonic cells unattached to silicone elastomers when biofilm formation is inhibited. Clear medium with the cell attached to the silicone elastomer indicate establishment of functional biofilm. Each treatment was done in triplicate. FIG. 5B is a graph showing quantitation of turbidity of medium. Media was removed from the wells, vortexed vigorously and the OD at 600 nm was measured in a spectrophotometer. FIG. 5C is a graph showing quantitation of dry weight of biofilm. Dry weight in mg of air-dried silicone elastomers.
Fungal biofilm formation on implanted medical devices is a serious medical problem because these biofilms can lead to life-threatening systemic infections. An established in vitro assay to study device colonization makes use of silicone mesh as a surrogate surface (Nobile, 2006). We tested how the compounds that affected polystyrene adhesion (FIG. 1) would affect biofilm formation by visual inspection of the biofilms formed, by measuring the optical density of the supernatant liquid cultures, and by measuring their dry weights. […] Therefore, compounds #4 and Q1 were effective inhibitors of both hyphal morphogenesis (FIG. 4) and biofilm formation on silicone mesh (FIG. 5).
We adapted a published method (Nobile, 2006, supra). Autoclaved, pre-weighed silicone mesh squares (Bentec, Catalog Number PR72034-04N) were incubated overnight at 37° C. with undiluted bovine serum. Following washing with PBS, the squares were transferred to 12-well plates and incubated with 0.5 OD/ml SC5314-GFP cells in Spider medium (with or without drugs as indicated), for 90 min at 37° C., shaking at 200 rpm. Squares were washed in PBS and transferred to new 12-well plates containing fresh Spider medium with fresh drugs and incubated for 60 hrs in a 37° C. shaker at 200 rpm. The plates were then photographed, the liquid media were collected for A600 nm measurements, and the dry weights of the bound biofilms were measured following drying of the silicone squares in a chemical hood.

Structure (SMILES)	C. albicans adhesion to polystyrene [1]	synergy on adhesion upon combining compound #4 and compound #12 ([1]; #4 1.5 μM with #12 4 and 6 μM)	effect on adhesion of compound alone ([1]; compound #4 1.5 μM, compound #12 4 and 6 μM)	inhibition of C. albicans adhesion to human A549 cells [2]	dry weight of biofilm [3]	biofilm formation, visual inspection [3]	biofilm formation on silicone mesh ([3]; Example 14)
Cc1ccc(C(=O)N2CCN(c3ccc([N+](=O)[O-])cc3)CC2)cc1Cl [Compound 4]	effective adhesion inhibitors	did not further reduce adhesion	partial effects	by far the strongest inhibitor of adhesion to human epithelial cells; also recorded: strongly inhibited	most effective at reducing biofilm formation	most effectively kept the cells dispersed in the media rather than on the mesh	effective inhibitors of both hyphal morphogenesis and biofilm formation on silicone mesh
O=C(c1ccc(Cl)c(Cl)c1)N1CCN(c2ccc([N+](=O)[O-])cc2)CC1 [Compound 9]	effective adhesion inhibitors			not #9 effectively inhibited human cell binding	most effective at reducing biofilm formation	most effectively kept the cells dispersed in the media rather than on the mesh	
